Experimental findings from PubChem BioAssay (NCI) are described below.

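These data come from cells grown in 96-well plates and exposed to compound for 48 hours at five concentrations. At the GI50, growth is halved. TGI is the concentration that stops growth completely.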 Bounds are passed on as bounds.

Test systems include 786-0 renal; A549 NSCLC; CCRF-CEM leukemia; HCT-15 colon; NCI-H226 lung; OVCAR-3 ovarian; SK-OV-3 ovarian; SNB-75 CNS; UACC-257 melanoma; UACC-62 melanoma.
What all share (experiment): NCI-60 cell line screen, 48 h

For the compound `O=C(c1ccccc1)C(CN1CCCCC1)c1ccccc1` (stereo not given), the GI50 is 1.91 µM with 786-0 renal; 16.1 µM in the experiment with A549 NSCLC; 0.301 µM in the experiment with CCRF-CEM leukemia; 0.599 µM in the experiment with HCT-15 colon; 3.67 µM in the experiment with NCI-H226 lung; 1.78 µM with OVCAR-3 ovarian. For the same compound, the GI50 with SK-OV-3 ovarian is 7.27 µM; with SNB-75 CNS it was 3.46 µM; in the experiment on UACC-257 melanoma, 1.73 µM; in the experiment on UACC-62 melanoma, 1.98 µM. The TGI with 786-0 renal worked out at 3.45 µM; in the experiment on A549 NSCLC, 43.8 µM; with CCRF-CEM leukemia, 2.34 µM; with HCT-15 colon, 2.06 µM; in the experiment with NCI-H226 lung, 14.8 µM; with OVCAR-3 ovarian, 3.25 µM. Moreover, the TGI in the experiment with SK-OV-3 ovarian was 24.8 µM; with SNB-75 CNS, 15.4 µM; in the experiment on UACC-257 melanoma it was 4.06 µM; in the experiment on UACC-62 melanoma, 4.8 µM.
For `Cc1nnc(-c2cccc(-c3ccc(C(=O)NCC4CC4)cc3)c2)o1`, the GI50 with 786-0 renal, in the experiment on A549 NSCLC, in the experiment with CCRF-CEM leukemia, in the experiment with HCT-15 colon, in the experiment on NCI-H226 lung and with OVCAR-3 ovarian was > 25 µM in each case. In addition, the GI50 in the experiment with SK-OV-3 ovarian, in the experiment on SNB-75 CNS, in the experiment with UACC-257 melanoma and with UACC-62 melanoma was > 25 µM in each case. Moreover, the TGI in the experiment with 786-0 renal, with A549 NSCLC, in the experiment with CCRF-CEM leukemia, in the experiment on HCT-15 colon, in the experiment with NCI-H226 lung and in the experiment with OVCAR-3 ovarian was > 25 µM in each case. Besides, the TGI with SK-OV-3 ovarian, in the experiment with SNB-75 CNS, in the experiment on UACC-257 melanoma and with UACC-62 melanoma was > 25 µM throughout.
`O=C(O)CCC(N=Cc1nc(-c2ccccc2)oc1O)C(=O)O` (stereo not given): the TGI in the experiment with 786-0 renal, with A549 NSCLC, with CCRF-CEM leukemia, with HCT-15 colon, in the experiment on NCI-H226 lung and in the experiment with OVCAR-3 ovarian was > 100 µM throughout. For the same compound, the TGI in the experiment on SK-OV-3 ovarian, in the experiment with SNB-75 CNS, in the experiment on UACC-257 melanoma and in the experiment on UACC-62 melanoma was > 100 µM in each case.
Regarding `COc1cc(C(=O)N2CCN(c3ncnc4ccccc34)CC2)c(N)cc1OCc1ccccc1`, the GI50 with 786-0 renal was 12.9 µM; in the experiment with A549 NSCLC it was 16.5 µM; with CCRF-CEM leukemia it was 23.8 µM; in the experiment with HCT-15 colon it was 16.7 µM; in the experiment with NCI-H226 lung, 16.1 µM; with OVCAR-3 ovarian, 11.8 µM. Moreover, the GI50 with SK-OV-3 ovarian is 20.9 µM; in the experiment with SNB-75 CNS, 7.63 µM; with UACC-257 melanoma it was 21.7 µM; in the experiment with UACC-62 melanoma, 12 µM. The TGI turned out to be 26.2 µM in the experiment on 786-0 renal; 50.5 µM in the experiment on A549 NSCLC; 58.1 µM in the experiment on CCRF-CEM leukemia; 31 µM in the experiment on HCT-15 colon; 33.3 µM with NCI-H226 lung; 25 µM with OVCAR-3 ovarian. Besides, the TGI in the experiment on SK-OV-3 ovarian was 49 µM; with SNB-75 CNS, 20.8 µM; in the experiment with UACC-257 melanoma it was 48.5 µM; with UACC-62 melanoma, 24.3 µM.
Consider `Cn1c2c(c3ccc([N+](=O)[O-])cc3c1=O)C(=O)c1ccccc1-2`, for which the GI50 with 786-0 renal is > 100 µM; in the experiment on A549 NSCLC, > 100 µM; with CCRF-CEM leukemia, > 100 µM; with HCT-15 colon it was > 100 µM; in the experiment with NCI-H226 lung it was > 100 µM; with OVCAR-3 ovarian it was 52.6 µM. Also, the GI50 in the experiment on SK-OV-3 ovarian, with SNB-75 CNS, in the experiment on UACC-257 melanoma and in the experiment with UACC-62 melanoma was > 100 µM throughout. The TGI in the experiment on 786-0 renal, in the experiment with A549 NSCLC, with CCRF-CEM leukemia, in the experiment with HCT-15 colon, in the experiment with NCI-H226 lung and with OVCAR-3 ovarian was > 100 µM in each case. Besides, the TGI with SK-OV-3 ovarian, in the experiment on SNB-75 CNS, in the experiment on UACC-257 melanoma and with UACC-62 melanoma was > 100 µM each time.
For `COc1ccc(/C(Cl)=C(\C=N/O)c2ccc(OC)c(OC)c2)cc1OC`, the TGI in the experiment with 786-0 renal, in the experiment on A549 NSCLC, in the experiment on CCRF-CEM leukemia, in the experiment on HCT-15 colon, in the experiment with NCI-H226 lung and with OVCAR-3 ovarian was > 100 µM each time. The TGI with SK-OV-3 ovarian, in the experiment with SNB-75 CNS, in the experiment on UACC-257 melanoma and in the experiment on UACC-62 melanoma was > 100 µM each time.
With `Cc1nc2ccccc2c(/C=C/c2ccc(Cl)cc2)c1C(=O)/C=C/c1ccc(C(F)(F)F)cc1`, the GI50 with 786-0 renal is 0.33 µM; in the experiment with A549 NSCLC, 1.41 µM; with CCRF-CEM leukemia, 0.291 µM; in the experiment with HCT-15 colon, 0.179 µM; with NCI-H226 lung it was 0.306 µM; in the experiment with OVCAR-3 ovarian it was 0.292 µM. The GI50 in the experiment with SK-OV-3 ovarian was 1.67 µM; in the experiment on SNB-75 CNS, 1.28 µM; in the experiment with UACC-257 melanoma, 1.06 µM; in the experiment with UACC-62 melanoma it was 0.939 µM. The TGI is 1.26 µM in the experiment on 786-0 renal; 3.48 µM in the experiment on A549 NSCLC; > 100 µM in the experiment on CCRF-CEM leukemia; 0.599 µM with HCT-15 colon; 0.911 µM with NCI-H226 lung; 0.82 µM in the experiment with OVCAR-3 ovarian. Moreover, the TGI with SK-OV-3 ovarian turned out to be 3.1 µM; in the experiment on SNB-75 CNS, 2.57 µM; in the experiment on UACC-257 melanoma, 2.93 µM; in the experiment with UACC-62 melanoma it was 2.29 µM.
As to `Cn1cnc([N+](=O)[O-])c1Sc1nc(N)nc2c1ncn2C1CC(O)C(CO)O1` (stereo not given), the TGI is > 100 µM with 786-0 renal; > 100 µM in the experiment on A549 NSCLC; > 100 µM with CCRF-CEM leukemia; > 100 µM in the experiment with HCT-15 colon; 98.2 µM in the experiment with NCI-H226 lung; > 36.4 µM in the experiment on OVCAR-3 ovarian. The TGI in the experiment with SK-OV-3 ovarian is > 79.1 µM; in the experiment on SNB-75 CNS it was 37.7 µM; in the experiment with UACC-257 melanoma it was > 100 µM; in the experiment with UACC-62 melanoma, > 20.8 µM.
Consider `COC(=O)C(C(=O)C(=O)Nc1ccc([N+](=O)[O-])cc1[N+](=O)[O-])c1nc2ccc(Cl)cc2[nH]c1=O` (stereo not given), for which the TGI with 786-0 renal, with A549 NSCLC, with CCRF-CEM leukemia, in the experiment on HCT-15 colon, with NCI-H226 lung and in the experiment on OVCAR-3 ovarian was > 100 µM in each case. For the same compound, the TGI in the experiment with SK-OV-3 ovarian, in the experiment with SNB-75 CNS, in the experiment with UACC-257 melanoma and with UACC-62 melanoma was > 100 µM throughout.
As for `O=C(Cc1ccc(F)c(F)c1)Nc1cc(C2(C(F)(F)F)CC2)nn1Cc1ccccc1`, the GI50 with 786-0 renal is 4.52 µM; in the experiment with A549 NSCLC it was 4.6 µM; with CCRF-CEM leukemia, 4.79 µM; with HCT-15 colon, 4.03 µM; in the experiment with NCI-H226 lung, 4.85 µM; with OVCAR-3 ovarian it was 3.85 µM. Moreover, the GI50 with SK-OV-3 ovarian is 3.56 µM; in the experiment on SNB-75 CNS, 0.747 µM; in the experiment with UACC-257 melanoma it was 3.61 µM; with UACC-62 melanoma, 4.33 µM. Further, the TGI with 786-0 renal is > 15 µM; in the experiment on A549 NSCLC it was > 15 µM; with CCRF-CEM leukemia, > 15 µM; in the experiment on HCT-15 colon, > 15 µM; in the experiment on NCI-H226 lung it was > 15 µM; in the experiment with OVCAR-3 ovarian, 14.5 µM. The TGI is 11.8 µM in the experiment on SK-OV-3 ovarian, 7.09 µM in the experiment with SNB-75 CNS, 12.4 µM in the experiment with UACC-257 melanoma and > 15 µM in the experiment with UACC-62 melanoma.
In the case of `CC(Nc1ccc(S(=O)(=O)N=C(N)N)cc1)c1c2ccccc2nc2ccccc12` (stereo not given), the TGI in the experiment on 786-0 renal is > 100 µM; in the experiment with A549 NSCLC, > 100 µM; in the experiment with CCRF-CEM leukemia, 60.5 µM; in the experiment with HCT-15 colon, > 100 µM; with NCI-H226 lung, 80.4 µM; with OVCAR-3 ovarian, > 10 µM. Further, the TGI is 73.6 µM in the experiment on SK-OV-3 ovarian, 79.7 µM in the experiment with SNB-75 CNS, 97.6 µM in the experiment with UACC-257 melanoma and > 10 µM in the experiment with UACC-62 melanoma.
Turning to `N=c1ccn(O)cc1/C=C1/C(=O)Nc2ccccc21`, the GI50 with 786-0 renal, with A549 NSCLC, in the experiment on CCRF-CEM leukemia, in the experiment on HCT-15 colon, in the experiment with NCI-H226 lung and with OVCAR-3 ovarian was > 100 µM in each case. Moreover, the GI50 in the experiment with SK-OV-3 ovarian, in the experiment on SNB-75 CNS, with UACC-257 melanoma and in the experiment with UACC-62 melanoma was > 100 µM throughout. The TGI with 786-0 renal, in the experiment on A549 NSCLC, in the experiment on CCRF-CEM leukemia, with HCT-15 colon, with NCI-H226 lung and with OVCAR-3 ovarian was > 100 µM each time. The TGI in the experiment on SK-OV-3 ovarian, with SNB-75 CNS, with UACC-257 melanoma and with UACC-62 melanoma was > 100 µM throughout.
Consider `NCC1OC(n2cnc3c(N)ncnc32)CC1O` (stereo not given), for which the TGI with 786-0 renal, in the experiment with A549 NSCLC, in the experiment with CCRF-CEM leukemia, in the experiment with HCT-15 colon, in the experiment on NCI-H226 lung and in the experiment with OVCAR-3 ovarian was > 100 µM each time. Also, the TGI in the experiment with SK-OV-3 ovarian, in the experiment with SNB-75 CNS, in the experiment on UACC-257 melanoma and with UACC-62 melanoma was > 100 µM throughout.
